In ChEMBL document CHEMBL1136822, “Synthesis, antiviral activity and pharmacokinetics of P1/P1' substituted 3-aminoindazole cyclic urea HIV protease inhibitors” (Bioorg Med Chem Lett, 2003):
Values belong to the molecule of their own block, whether it stands above or below them.

Experiments:
MT2 [1] = test: Inhibitory concentration of compound against HIV […] mutant in MT2 cells; format: functional; settings: Homo sapiens
[2] = tested on: Human immunodeficiency virus 1; test: Inhibitory concentration of compound against HIV HXB2 strain; format: functional
[3] = tested on: Human immunodeficiency virus 1; test: Inhibitory concentration of compound against HIV vertex mutant virus 19-fold resistant to […]; format: functional
Homo sapiens = species: Homo sapiens; test: Protein binding adjusted IC90s for the I84V mutant was determined; format: functional
[4] = 8 hour trough Blood level in dog was measured after administration of compound; format: ADME, organism-based, Canis lupus familiaris; settings: read-out: C 8 h
[5] = tested on: Human immunodeficiency virus 1; test: Inhibitory concentration of compound against HIV abbott mutant virus 25-fold resistant to ritonavir; format: functional
MT2 [6] = test: Inhibitory concentration of compound against HIV V82F/[…] mutant in MT2 cells; format: functional; settings: Homo sapiens
[7] = tested on: Human immunodeficiency virus 1; test: Resistance factor of compound towards HIV-1 was measured as inhibitory concentration of compound required to inhibit viral RNA transcripts accumulation after infection in cells; format: functional
[8] = Half life period in dog; format: ADME, organism-based, Canis lupus familiaris; settings: in vivo
[9] = Pharmacokinetic activity (Cmax) in dog; format: ADME, organism-based, Canis lupus familiaris; settings: in vivo
[10] = Oral bioavailability in dog (dose 10 mg/kg); format: ADME, organism-based, Canis lupus familiaris; settings: in vivo
[11] = molecular target: Human immunodeficiency virus type 1 protease (Human immunodeficiency virus 1, UniProt Q72874); test: Binding affinity against HIV-Protease was determined
[12] = Effect on increase in RNA IC90 value after HSA (45 mg/mL) and AAG (1 mg/mL) were determined in absence or presence of two plasma proteins (45 mg/mL human serum albumin and 1 mg/mL alpha-1-acid glycoprotein).; format: functional
[13] = Pharmacokinetic activity (Cmax) (10 mg/kg) was determined in dog; format: ADME, organism-based, Canis lupus familiaris; set-up: dose 10 mg/kg; settings: in vivo
[14] = Half life period (10 mg/kg) was determined in dog; format: ADME, organism-based, Canis lupus familiaris; settings: in vivo
[15] = tested on: Human immunodeficiency virus 1; test: Inhibitory concentration of compound against HIV vertex mutant virus 19-fold resistant to amprenavir; format: functional

SMILES: CCCCN1C(=O)N(Cc2ccc3[nH]nc(N)c3c2)[C@H](Cc2ccccc2)[C@H](O)[C@@H](O)[C@H]1Cc1ccccc1
IC90 (MT2 [1]): 390 nM
IC90 [2]: 69 nM
IC90 [3]: 87 nM
IC90 (Homo sapiens): 952 nM
concentration at 8 h [4]: 7.2 µM
IC90 [5]: 1470 nM
IC90 (MT2 [6]): 1790 nM
IC90 [7]: 56 nM
half-life [8]: 7.7 h
Cmax [9]: 11.7 µM
bioavailability [10]: 57%
Ki [11]: 0.021 nM
Fold shift [12]: 17

SMILES: CCCCN1C(=O)N(Cc2ccc3[nH]nc(N)c3c2)[C@H](Cc2cccc(C)c2)[C@H](O)[C@@H](O)[C@H]1Cc1cccc(C)c1
IC90 [2]: 54 nM
IC90 (Homo sapiens): 775 nM
IC90 [5]: 1600 nM
IC90 (MT2 [6]): 1600 nM
IC90 [7]: 31 nM
Ki [11]: 0.045 nM
Fold shift [12]: 25

SMILES: CCCCN1C(=O)N(Cc2ccc3[nH]nc(N)c3c2)[C@H](Cc2ccc(C)cc2)[C@H](O)[C@@H](O)[C@H]1Cc1ccc(C)cc1
IC90 [2]: 16 nM
IC90 [3]: 7 nM
IC90 (Homo sapiens): 420 nM
concentration at 8 h [4]: 0.07 µM
IC90 [5]: 1700 nM
IC90 (MT2 [6]): 1750 nM
IC90 [7]: 12 nM
half-life [8]: 1.6 h
Cmax [9]: 1.2 µM
bioavailability [10]: 23%
Ki [11]: 0.037 nM
Fold shift [12]: 35

SMILES: Cc1cccc(C[C@@H]2[C@H](O)[C@@H](O)[C@@H](Cc3cccc(C)c3)N(Cc3ccc4[nH]nc(N)c4c3)C(=O)N2Cc2ccccc2)c1
IC90 (MT2 [1]): 104 nM
IC90 [2]: 26 nM
IC90 (Homo sapiens): 300 nM
concentration at 8 h [4]: 0.35 µM
IC90 [5]: 1760 nM
IC90 (MT2 [6]): 2680 nM
IC90 [7]: 25 nM
half-life [8]: 3.9 h
bioavailability [10]: 20%
Ki [11]: 0.062 nM
Fold shift [12]: 12
Cmax [13]: 3.6 µM

SMILES: CCc1ccc(C[C@@H]2[C@H](O)[C@@H](O)[C@@H](Cc3ccc(CC)cc3)N(Cc3ccc4[nH]nc(N)c4c3)C(=O)N2Cc2ccccc2)cc1
IC90 (MT2 [1]): 410 nM
IC90 [2]: 81 nM
IC90 (Homo sapiens): 247 nM
IC90 [5]: 12600 nM
IC90 (MT2 [6]): > 1600 nM
IC90 [7]: 19 nM
Ki [11]: 0.072 nM
Fold shift [12]: 13

SMILES: CCCCN1C(=O)N(Cc2ccc3[nH]nc(N)c3c2)[C@H](Cc2cc(C)cc(C)c2)[C@H](O)[C@@H](O)[C@H]1Cc1cc(C)cc(C)c1
IC90 [2]: 56 nM
IC90 [5]: 7540 nM
IC90 [7]: 66 nM
Ki [11]: 0.19 nM

half-life [14]: 3.5 h
concentration at 8 h [4]: 2.8 µM
Cmax [9]: 9.6 µM
bioavailability [10]: 60%
SMILES: Nc1n[nH]c2ccc(CN3C(=O)N(Cc4ccccc4)[C@H](Cc4ccccc4)[C@H](O)[C@@H](O)[C@H]3Cc3ccccc3)cc12

SMILES: CCCCN1C(=O)N(Cc2ccc3[nH]nc(N)c3c2)[C@H](Cc2ccc(CC)cc2)[C@H](O)[C@@H](O)[C@H]1Cc1ccc(CC)cc1
IC90 (MT2 [1]): 260 nM
IC90 [2]: 22 nM
IC90 (Homo sapiens): 220 nM
IC90 [5]: 4030 nM
IC90 (MT2 [6]): > 1800 nM
IC90 [7]: 10 nM
Ki [11]: 0.094 nM
Fold shift [12]: 22

SMILES: Cc1cc(C)cc(C[C@@H]2[C@H](O)[C@@H](O)[C@@H](Cc3cc(C)cc(C)c3)N(Cc3ccc4[nH]nc(N)c4c3)C(=O)N2Cc2ccccc2)c1
IC90 [2]: 100 nM
IC90 (Homo sapiens): 350 nM
IC90 [5]: > 7300 nM
IC90 [7]: 50 nM
Ki [11]: 0.2 nM
Fold shift [12]: 7

SMILES: Cc1ccc(C[C@@H]2[C@H](O)[C@@H](O)[C@@H](Cc3ccc(C)cc3)N(Cc3ccc4[nH]nc(N)c4c3)C(=O)N2Cc2ccccc2)cc1
IC90 (MT2 [1]): 310 nM
IC90 [2]: 17 nM
IC90 [3]: 24 nM
IC90 (Homo sapiens): 192 nM
half-life [14]: 3.9 h
concentration at 8 h [4]: 0.35 µM
IC90 [5]: 1880 nM
IC90 (MT2 [6]): > 1700 nM
IC90 [7]: 12 nM
bioavailability [10]: 29%
Ki [11]: 0.047 nM
Fold shift [12]: 16
Cmax [13]: 3.6 µM

SMILES: Nc1[nH]nc2ccc(CN3C(=O)N(Cc4ccccc4)[C@H](Cc4ccccc4)[C@H](O)[C@@H](O)[C@H]3Cc3ccccc3)cc12
IC90 (MT2 [1]): 370 nM
IC90 [2]: 92 nM
IC90 [15]: 257 nM
IC90 (Homo sapiens): 496 nM
IC90 [5]: 1520 nM
IC90 (MT2 [6]): 2100 nM
IC90 [7]: 62 nM
